# Reference: PubChem BioAssay (NCI)
#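 GI50 marks 50% less growth. TGI marks complete inhibition of growth.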
# Key:
# Assay in all cases: growth of human tumour cells (NCI), 384-well format
# [1] = system: NCI-H23 lung
# [2] = system: TK-10 renal
# [3] = system: SN12C renal
# [4] = system: SNB-19 CNS
# [5] = system: M14 melanoma
# [6] = system: SW-620 colon
# [7] = system: NCI-H460 NSCLC
# [8] = system: HOP-62 NSCLC
# [9] = system: OVCAR-5 ovarian
# [10] = system: SF-268 CNS
# [11] = system: K-562 leukemia
# [12] = system: NCI/ADR-RES ovarian
# [13] = system: COLO 205 colon
# [14] = system: OVCAR-3 ovarian
# [15] = system: MDA-MB-435 melanoma
# [16] = system: BT-549 breast
# [17] = system: HT29 colon
# [18] = system: OVCAR-8 ovarian
# [19] = system: UO-31 renal
# [20] = system: HCC-2998 colon
# [21] = system: MOLT-4 leukemia
# [22] = system: ACHN renal
# [23] = system: OVCAR-4 ovarian
# [24] = system: UACC-62 melanoma
# [25] = system: MALME-3M melanoma
# [26] = system: 786-0 renal
# [27] = system: RPMI-8226 leukemia
# [28] = system: SK-OV-3 ovarian
# [29] = system: A498 renal
compound,measurement,setting,value
Cc1[nH]c(/C=C2\C(=O)Nc3ccc(S(=O)(=O)Cc4c(Cl)cccc4Cl)cc32)c(C)c1C(=O)N1CCC[C@@H]1CN1CCCC1,GI50,[1],1020 nM
same,TGI,[1],6680 nM
same,GI50,[2],1820 nM
same,TGI,[2],3220 nM
same,GI50,[3],1500 nM
same,TGI,[3],2830 nM
same,GI50,[4],1940 nM
same,TGI,[4],3360 nM
same,GI50,[5],1740 nM
same,TGI,[5],3120 nM
same,GI50,[6],1760 nM
same,TGI,[6],3160 nM
same,GI50,[7],1340 nM
same,TGI,[7],2630 nM
same,GI50,[8],1850 nM
same,TGI,[8],3250 nM
same,GI50,[9],1930 nM
same,TGI,[9],3370 nM
same,GI50,[10],1460 nM
same,TGI,[10],2780 nM
same,GI50,[11],1720 nM
same,TGI,[11],3100 nM
same,GI50,[12],1890 nM
same,TGI,[12],3360 nM
same,GI50,[13],1720 nM
same,TGI,[13],3100 nM
same,GI50,[14],1890 nM
same,TGI,[14],3310 nM
same,GI50,[15],1760 nM
same,TGI,[15],3150 nM
same,GI50,[16],1560 nM
same,TGI,[16],2900 nM
same,GI50,[17],1780 nM
same,TGI,[17],3180 nM
same,GI50,[18],1680 nM
same,TGI,[18],3060 nM
same,GI50,[19],1690 nM
same,TGI,[19],3070 nM
same,GI50,[20],1990 nM
same,TGI,[20],3420 nM
same,GI50,[21],573 nM
same,TGI,[21],1730 nM
same,GI50,[22],1600 nM
same,TGI,[22],2950 nM
same,GI50,[23],1740 nM
same,TGI,[23],3130 nM
same,GI50,[24],1060 nM
same,TGI,[24],2250 nM
same,GI50,[25],1720 nM
same,TGI,[25],3100 nM
same,GI50,[26],1440 nM
same,TGI,[26],2750 nM
same,GI50,[27],1250 nM
same,TGI,[27],2500 nM
same,GI50,[28],1340 nM
same,TGI,[28],2630 nM
same,GI50,[29],1630 nM
